Patent US7888331B2, “Ganglioside compositions and methods of use” (Seneb Biosciences, Inc., priority 2003, dated 2011)

System: mouse cortical cells
Experiment: Protection of cortical cells from apoptosis (hydrogen peroxide, MTT)
Assay type: cell-based
Conditions: approx. 0.1 μM, 50 μM hydrogen peroxide
Procedure: To induce apoptosis, mouse cortical cells were cultured and treated with 50 μM hydrogen peroxide for three hours prior to being treated with the ganglioside analogue. The cells were also treated with the hydrogen peroxide during treatment with the ganglioside analogue and post-treatment for 48 h. Cell death was assayed using the MTT assay.

LIGA-20
protection of the cells from apoptosis: approximately 20%
